Tests used:
mouse antibody 1A3 [1] = assay: Specificity of mouse antibody 1A3: immunostaining after mixing with compound (Example 5 ii); format: binding; conditions: Example 5, written in present tense; blending ratio 0.1:0.04:0.03
Experimental: To a highly immunodeficient mouse (NOG mouse), a human-derived tumor is subcutaneously transplanted. After the antibody-drug conjugate according to the present invention is administered, the tumor tissue is taken to prepare paraffin-embedded specimens. Then, stainability of a mouse antibody 1A3 is examined. The tumor tissue is taken from a NOG mouse to which the antibody-drug conjugate according to the present invention is not administered and used as a negative control. Deparaffinization and antigen activation are carried out using Autostainer Link pretreatment system (PT Link, manufactured by DAKO) and an antigen retrieval solution (Target Retrieval Solution Low pH, manufactured by DAKO). The following staining operation is carried out using an automatic staining device (Dako Autostainer Link 48: Manufactured by DAKO). After washing with EnVision FLEX WASH BUFFER (manufactured by DAKO), Peroxidase Block 3% H2O2 (manufactured by DAKO) is add; incubation is carried out; and washing is carried out with EnVision FLEX WASH BUFFER. Protein Block serum free (manufactured by DAKO) is added; incubation s carried out; and liquid is removed by air blow. Mouse antibody 1A3 is diluted with REAL Antibody Diluent (manufactured by DAKO) and reacted. […]

mouse antibody 1A3 [2] = assay: Competitive inhibition with HER2-ADC (I), chemical structure recognized by mouse antibody 1A3 (Gyrolab); format: binding; conditions: compound 1 and 100 μg/mL dilution solutions; response at HER2-ADC (I) 250 ng/mL
Description: The chemical structure to be recognized by mouse antibody 1A3 was checked by competitive inhibition with HER2-ADC (I) using Gyrolab xP workstation (GYROS PROTEIN Technologies). As the compound for use in competitive inhibition, compound (1), compound (2), compound (7), compound (8), compound (9), compound (10), compound (11), Topotecan and Rubitecan were selected.
As the capture reagent, mouse antibody 1A3 labeled with biotin by a labeling kit (ChromaLink Biotin Protein LABELING Kit, Solulink) was used. The concentration thereof was controlled to be 700 nM with 0.1% PS20-containing PBS. The compounds for use in competitive inhibition, compound (1), compound (2), compound (7), compound (8), compound (9), compound (10), compound (11), Topotecan and Rubitecan were separately dissolved in DMSO. The solutions each was diluted with 10% or 20% DMSO in Rexxip HN (GYROS PROTEIN Technologies) to prepare 0, 1 and 100 μg/mL dilution solutions. To each of them, the 700 nM mouse antibody 1A3 solution was added in an equal amount. The mixture was stirred and allowed to react at room temperature in a dark place for one hour or more. The concentration of HER2-ADC (I) was controlled with Rexxip HN to be 0, 0.244, 0.977, 3.91, 15.6, 62.5, 250 and 1000 ng/mL. As the detection reagent, Mouse Anti-(Anti-HER2 Ab) idiotype Ab (13C1) (IBL) was labeled by DyLight650 (registered trademark) labeling kit and put in use. The concentration thereof was controlled with Rexxip F (GYROS PROTEIN Technologies) to be 10 nM. The above solution was set at Gyrolab xP workstation and measurement was carried out by use of Gyrolab Bioaffy 200 at 200-3W-002-A (PMT5). The regression analysis was carried out by use of Gyrolab Evaluator 3.4.0.24 in 4-parametric logistic model (weight: Response). The calibration curve of HER2-ADC (I) was prepared per concentration of the competitive inhibition compound. The inhibition rate (%) was calculated by comparing the response at an HER2-ADC (I) concentration of 250 ng/mL to that of the case where no compound was added (concentration 0 ng/mL).

mouse antibody 1A3 [3] = assay: Specificity of mouse antibody 1A3: immunostaining after mixing with compound (Example 9 ii); format: binding; conditions: CDH6-ADC (I) treated NOG mouse tumor; blending ratio 1A3: compound (2): SN-38 0.1:0.04:0.03
Experimental: To a highly immunodeficient mouse (NOG mouse), a human tumor taken from a patient with clear cell renal cell carcinoma was subcutaneously transplanted. After CDH6-ADC (I) was administered, the tumor tissue was taken to prepare paraffin-embedded specimens. Then, stainability of mouse antibody 1A3 was examined. The tumor tissue was taken from an NOG mouse to which CDH6-ADC (I) was not administered and used as a negative control. Deparaffinization and antigen activation were carried out using Autostainer Link pretreatment system (PT Link, manufactured by DAKO) and an antigen retrieval solution (Target Retrieval Solution Low pH, manufactured by DAKO) at 97° C. for 40 minutes. The following staining operation was carried out using an automatic staining device (Dako Autostainer Link 48: manufactured by DAKO) at room temperature. After washing once with EnVision FLEX WASH BUFFER (manufactured by DAKO), Peroxidase Block 3% H2O2 (manufactured by DAKO) was added; incubation was carried out for 5 minutes; and washing was carried out once with EnVision FLEX WASH BUFFER. Protein Block serum free (manufactured by DAKO) was added; incubation was carried out for 30 minutes; and liquid was removed by air blow. Mouse antibody 1A3 was diluted with REAL Antibody Diluent (manufactured by DAKO) to fall in the range of 0.03 μg/mL to 0.3 μg/mL and reaction was made for 60 minutes. […]

topoisomerase I = target: T1, topoisomerase I (Homo sapiens, UniProt P11387); conditions: cited from earlier work
T1 sequence (P11387 1-765): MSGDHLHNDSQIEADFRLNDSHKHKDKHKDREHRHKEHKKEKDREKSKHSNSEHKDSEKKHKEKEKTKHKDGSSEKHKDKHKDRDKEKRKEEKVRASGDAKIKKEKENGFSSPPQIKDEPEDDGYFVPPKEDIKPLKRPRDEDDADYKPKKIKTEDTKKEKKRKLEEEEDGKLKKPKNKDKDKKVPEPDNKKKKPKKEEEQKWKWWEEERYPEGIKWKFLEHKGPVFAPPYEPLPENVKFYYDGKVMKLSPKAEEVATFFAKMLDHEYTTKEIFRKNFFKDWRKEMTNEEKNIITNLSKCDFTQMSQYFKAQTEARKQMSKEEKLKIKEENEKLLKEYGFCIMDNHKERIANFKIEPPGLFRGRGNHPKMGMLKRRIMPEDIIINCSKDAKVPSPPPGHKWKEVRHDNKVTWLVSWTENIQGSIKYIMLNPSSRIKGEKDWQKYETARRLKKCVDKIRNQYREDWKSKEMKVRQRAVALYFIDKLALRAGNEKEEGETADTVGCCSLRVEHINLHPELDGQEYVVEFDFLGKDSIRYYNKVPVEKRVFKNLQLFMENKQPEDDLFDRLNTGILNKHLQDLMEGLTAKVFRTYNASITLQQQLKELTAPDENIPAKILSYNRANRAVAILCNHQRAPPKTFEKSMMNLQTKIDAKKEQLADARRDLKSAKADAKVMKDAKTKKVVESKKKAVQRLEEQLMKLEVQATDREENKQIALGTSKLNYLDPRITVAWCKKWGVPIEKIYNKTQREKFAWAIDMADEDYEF

SMILES | stainability of mouse antibody 1A3 after mixing with the compound (mouse antibody 1A3 [1]) | competitive inhibition of recognition of mouse antibody 1A3 to HER2-ADC (I) (inhibition rate, FIG. 41) (mouse antibody 1A3 [2]) | staining ability of mouse antibody 1A3 after mixing with the compound (mouse antibody 1A3 [3]) | topoisomerase I inhibitory activity (topoisomerase I)
CC[C@@]1(O)C(=O)OCc2c1cc1n(c2=O)Cc2c-1nc1cc(F)c(C)c3c1c2[C@@H](NC(=O)CO)CC3 [compound (2)] | disappears | strong competitive inhibition | disappeared | topoisomerase I inhibitory effect
CCc1c2c(nc3ccc(O)cc13)-c1cc3c(c(=O)n1C2)COC(=O)[C@]3(O)CC [SN-38, reference compound] | does not disappear | – | did not disappear | –

From patent publication US12358999B2, “Protein recognizing drug moiety of antibody-drug conjugate” (DAIICHI SANKYO COMPANY, LIMITED, priority 2018, dated 2025)
